ChEMBL document CHEMBL1137863, “Triamino derivatives of triazolotriazine and triazolopyrimidine as adenosine A2a receptor antagonists” (Bioorg Med Chem Lett, 2004)

What was measured:
Adenosine receptor A2a = Adenosine receptor A2a (Rattus norvegicus, UniProt P30543)
Description: Binding affinity against Adenosine A2a receptor determined using [3H]ZM-241385 as radioligand

Adenosine receptor A1 = molecular target: T1, Adenosine receptor A1 (Rattus norvegicus, UniProt P25099); assay: biochemical
T1 sequence (P25099 whole entry): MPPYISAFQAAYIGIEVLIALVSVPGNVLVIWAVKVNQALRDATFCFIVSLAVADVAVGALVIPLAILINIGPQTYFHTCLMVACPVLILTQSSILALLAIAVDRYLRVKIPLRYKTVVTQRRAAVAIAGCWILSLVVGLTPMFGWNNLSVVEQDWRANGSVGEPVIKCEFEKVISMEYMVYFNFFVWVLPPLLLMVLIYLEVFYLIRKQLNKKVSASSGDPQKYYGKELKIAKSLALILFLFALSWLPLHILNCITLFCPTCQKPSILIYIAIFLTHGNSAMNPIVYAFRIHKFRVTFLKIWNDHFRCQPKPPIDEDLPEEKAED
Description: Binding affinity against Adenosine A1 receptor from rat cerebral cortex was determined using [3H]DPCPX as radioligand

Mus musculus = assay: Dose required for oral activity against mice catalepsy induced by 3 mg/kg haloperidol after s.c. administration; format: functional

Chain of Adenosine receptor A2a (P30543 whole entry): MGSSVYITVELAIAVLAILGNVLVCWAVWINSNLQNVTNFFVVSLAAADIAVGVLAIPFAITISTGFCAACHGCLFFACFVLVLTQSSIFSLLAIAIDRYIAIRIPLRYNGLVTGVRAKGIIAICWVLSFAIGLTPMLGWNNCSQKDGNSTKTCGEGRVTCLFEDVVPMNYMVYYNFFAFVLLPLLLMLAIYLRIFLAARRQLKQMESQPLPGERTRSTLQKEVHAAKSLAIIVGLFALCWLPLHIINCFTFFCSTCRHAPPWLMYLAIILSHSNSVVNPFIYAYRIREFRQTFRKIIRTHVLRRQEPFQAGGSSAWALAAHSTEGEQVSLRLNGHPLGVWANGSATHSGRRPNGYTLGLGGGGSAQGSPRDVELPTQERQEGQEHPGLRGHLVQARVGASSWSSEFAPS

| Compound | Ki (Adenosine receptor A2a) | Ki (Adenosine receptor A1) | Dose (Mus musculus) |
| --- | --- | --- | --- |
| CN(CCN1CCN(c2c(F)cc(F)cc2F)CC1)c1cc2nc(-c3ccco3)nn2c(N)n1 | 24 nM | 790 nM | – |
| CN(CCN1CCN(c2ccc(F)cc2F)CC1)c1nc(N)n2nc(-c3ccco3)nc2n1 | – | – | 3 mg/kg |
| Nc1nc(NCCCN2CCN(c3c(F)cc(F)cc3F)CC2)nc2nc(-c3ccco3)nn12 | 100 nM | > 500 nM | – |
| Nc1nc(NCCCN2CCN(c3ccccc3)CC2)nc2nc(-c3ccco3)nn12 | – | > 500 nM | – |
| Nc1nc(NCCN2CCN(c3c(F)cc(F)cc3F)CC2)cc2nc(-c3ccco3)nn12 | 92 nM | > 500 nM | – |
| CN(CCN1CCN(c2ccccc2)CC1)c1nc(N)n2nc(-c3ccco3)nc2n1 | 11 nM | 1500 nM | 3 mg/kg |
| Nc1nc(NCCN2CCN(c3ccc(F)cc3F)CC2)nc2nc(-c3ccco3)nn12 | – | 1100 nM | 10 mg/kg |
| Nc1nc(NCCN2CCN(c3c(F)cc(F)cc3F)CC2)nc2nc(-c3ccco3)nn12 | 24 nM | > 500 nM | – |
| Nc1nc(NCCN2CCN(c3ccccc3)CC2)nc2nc(-c3ccco3)nn12 | 22 nM | > 500 nM | >10 mg/kg |
| Nc1nc(NCCN2CCN(c3ccc(F)cc3F)CC2)cc2nc(-c3ccco3)nn12 | 55 nM | 2600 nM | >10 mg/kg |
| CN(CCN1CCN(c2ccc(F)cc2F)CC1)c1cc2nc(-c3ccco3)nn2c(N)n1 | – | 750 nM | 3 mg/kg |
| Nc1nc(N2CCN(c3c(F)cc(F)cc3F)CC2)nc2nc(-c3ccco3)nn12 | 29 nM | – | – |
| Nc1nc(NCCCN2CCN(c3ccc(F)cc3F)CC2)nc2nc(-c3ccco3)nn12 | 93 nM | > 500 nM | – |
